Source: ChEMBL document CHEMBL4627274, “Optimized plant compound with potent anti-biofilm activity across gram-negative species” (Bioorg Med Chem, 2020)
Activity calls are given as the source filed them. The rule behind the calls is not given here.

Key:
Salmonella enterica = test: Inhibition of swarming motility of Salmonella enterica clinical isolates incubated for 16 to 20 hrs; assay type: functional
Burkholderia cepacia = test: Inhibition of swarming motility of Burkholderia cepacia clinical isolates incubated for 16 to 20 hrs; assay type: functional
Pseudomonas aeruginosa [1] = test: Inhibition of swarming motility of Pseudomonas aeruginosa clinical isolates incubated for 16 to 20 hrs; assay type: functional
Escherichia coli [2] = test: Inhibition of swarming motility of Escherichia coli clinical isolates incubated for 16 to 20 hrs; assay type: functional
Escherichia coli [3] = test: Inhibition of swarming motility of Escherichia coli PY31 at 16 ug/mL incubated for 16 to 20 hrs relative to control; assay type: functional
Escherichia coli [4] = test: Antibiofilm activity against Escherichia coli UTI89 incubated for 2 days at 23 degC followed by 1 day incubation at RT; assay type: functional
Pseudomonas aeruginosa [5] = test: Inhibition of swarming motility of Pseudomonas aeruginosa HONKR at 16 ug/mL incubated for 16 to 20 hrs relative to control; assay type: functional
Pseudomonas aeruginosa [6] = test: Inhibition of swarming motility of Pseudomonas aeruginosa HONKR at 10 ug incubated for 18 to 24 hrs; assay type: functional, organism-based
Xanthomonas campestris = test: Inhibition of swarming motility of Xanthomonas campestris incubated for 16 to 20 hrs; assay type: functional
Pseudomonas aeruginosa [7] = test: Potentiation of colistin-induced inhibition of swarming motility in Pseudomonas aeruginosa HONKR assessed as reduction in biofilm formation at 0.125 ug/mL; assay type: functional, organism-based
M14 = test: Cytotoxicity against human M14 cells assessed as reduction in cell viability at < 10 uM; assay type: cell-based
Pseudomonas syringae = test: Inhibition of swarming motility of Pseudomonas syringae incubated for 16 to 20 hrs; assay type: functional
Pseudomonas aeruginosa [8] = test: Potentiation of tobramycin-induced inhibition of swarming motility in Pseudomonas aeruginosa HONKR assessed as reduction in biofilm formation at 0.125 ug/mL; assay type: functional, organism-based
Pseudomonas aeruginosa [9] = test: Downregulation of pilX gene expression in Pseudomonas aeruginosa by lacZ reporter gene based beta-galactosidase assay; assay type: functional, organism-based
[10] = test system: Pectobacterium atrosepticum; test: Inhibition of swarming motility of Pectobacterium atrosepticum incubated for 16 to 20 hrs; assay type: functional
Pseudomonas aeruginosa [11] = test: Down regulation of pilY1 expression in swarm plate cultured Pseudomonas aeruginosa PAO1 incubated for 19 to 24 hrs by Western blot analysis; assay type: functional, organism-based
Pseudomonas aeruginosa [12] = test: Down regulation of pilA expression in swarm plate cultured Pseudomonas aeruginosa PAO1 incubated for 19 to 24 hrs by Western blot analysis; assay type: functional, organism-based

Row | Compound | INH (Salmonella enterica) | INH (Burkholderia cepacia) | INH (Pseudomonas aeruginosa [1]) | INH (Escherichia coli [2]) | inhibition at 16 µg/mL (Escherichia coli [3]) | MBIC50 (Escherichia coli [4]) | inhibition at 16 µg/mL (Pseudomonas aeruginosa [5]) | further results
1 | CC[C@H]1OC(=O)[C@H](C)[C@@H](O[C@H]2C[C@@](C)(OC)[C@@H](O)[C@H](C)O2)[C@H](C)[C@@H](O[C@@H]2O[C@H](C)C[C@H](N(C)C)[C@H]2O)[C@](C)(O)C[C@@H](C)CN(C)[C@H](C)[C@@H](O)[C@]1(C)O [AZITHROMYCIN] | >16 µg/mL | >16 µg/mL | >16 µg/mL |  |  |  |  | 
2 | CC(C)(O/N=C(\C(=O)N[C@@H]1C(=O)N2C(C(=O)[O-])=C(C[n+]3ccccc3)CS[C@H]12)c1csc(N)n1)C(=O)O [CEFTAZIDIME] | 0.5 µg/mL | >8 µg/mL | 4 µg/mL | 0.25 µg/mL |  |  |  | 
3 | Cn1cc2c(n1)C(C)(C)[C@@H]1CC[C@]3(C)[C@H](CC=C4[C@@H]5CC(C)(C)CC[C@]5(C(=O)O)CC[C@]43C)[C@@]1(C)C2 | >16 µg/mL | 1 µg/mL | 16 µg/mL | >16 µg/mL | 80% | 8 µg/mL | > 90% | 
4 | NC[C@H]1O[C@H](O[C@H]2[C@H](O)[C@@H](O[C@H]3O[C@H](CO)[C@@H](O)[C@H](N)[C@H]3O)[C@H](N)C[C@@H]2N)[C@H](N)C[C@@H]1O [TOBRAMYCIN] | 8 µg/mL | >64 µg/mL | 4 µg/mL | 16 µg/mL |  |  |  | inhibition (Pseudomonas aeruginosa [6]): inactive
5 | CC1(C)CC[C@]2(C(=O)O)CC[C@]3(C)C(=CC[C@@H]4[C@@]5(C)CC[C@H](O)C(C)(C)[C@@H]5CC[C@]43C)[C@@H]2C1 [OLEANOLIC_ACID] | >64 µg/mL | 0.5 µg/mL | 8 µg/mL | 16 µg/mL | 80% | >=32 ug ml-1 | > 90% | 
6 | COLISTIN |  |  |  |  |  |  |  | inhibition (Pseudomonas aeruginosa [6]): inactive
7 | CCN(C[C@@H]1C[C@]2(C)[C@H]3CC=C4[C@@H]5CC(C)(C)CC[C@]5(C(=O)O)CC[C@@]4(C)[C@]3(C)CC[C@H]2C(C)(C)[C@H]1O)C(C)=O |  |  |  |  | 30% | 4 µg/mL | < 20% | 
8 | CC1(C)CC[C@]2(C(=O)O)CC[C@]3(C)C(=CC[C@@H]4[C@@]5(C)Cc6c(n[nH]c6N)C(C)(C)[C@@H]5CC[C@]43C)[C@@H]2C1 | 1 µg/mL | 0.25 µg/mL | 1 µg/mL | 1 µg/mL | > 90% | 4 µg/mL | > 90% | INH (Xanthomonas campestris): <0.5 µg/mL; Activity (Pseudomonas aeruginosa [7]): Active; Activity (M14): Non-Toxic; INH (Pseudomonas syringae): <0.5 µg/mL; Activity (Pseudomonas aeruginosa [8]): Active; Activity (Pseudomonas aeruginosa [9]): Active; INH [10]: <0.5 µg/mL; Activity (Pseudomonas aeruginosa [11]): Dose-dependent effect; Activity (Pseudomonas aeruginosa [12]): Dose-dependent effect
9 | CC1(C)CC[C@]2(C(=O)O)CC[C@]3(C)C(=CC[C@@H]4[C@@]5(C)Cc6cn[nH]c6C(C)(C)[C@@H]5CC[C@]43C)[C@@H]2C1 | 16 µg/mL | 0.5 µg/mL | 2 µg/mL | >16 µg/mL | > 90% | 4 µg/mL | > 90% | 
10 | CN(C)C(=O)[C@@H]1C[C@]2(C)[C@H]3CC=C4[C@@H]5CC(C)(C)CC[C@]5(C(=O)O)CC[C@@]4(C)[C@]3(C)CC[C@H]2C(C)(C)[C@H]1O |  |  |  |  | < 20% | 4 µg/mL | < 20% | 
